{"source": "patent US20130065959A1", "about": "“SANITIZING MEAT WITH PERACID AND 2-HYDROXY ORGANIC ACID COMPOSITIONS” (Fresh Express Incorporated, priority 2009, published 2013)", "key": {"[1]": {"test": "Depletion of sanitizer wash water by diced Romaine, commercial scale test (Example 5)", "format": "physicochemical", "details": "38 to 40 F; for PA (ppm) / Peroxide (ppm): 600 gallons, LA 0 ppm", "experimental": "(§1) Example 5. These experiments evaluated the consumption or depletion of peroxyacetic acid when used to wash produce.\n(§2) Treatments: chlorinated water, peroxyacetic acid wash water, and FE sanitizer wash water\n(§3) Temperature: 38 to 40° F.\n(§4) Produce: 1.5″×2″ diced Romaine lettuce\nA. Determination of the amount of Romaine Lettuce that could deplete 600 gallons of peroxyacetic acid wash water. • 1. Perform full sanitization on the Pilot Line System. • 2. Fill the 2nd flume tank, 2nd reservoir, and 2nd filtering tank with tap water. • 3. Recycle the water through the system until the water in the system is being cooled down to 40° F. • 4. Calibrate the Prominent System and use the Prominent System to monitor the concentration of PAA in the wash water. • 5. Add the PAA to the 2nd filtering tank until the target processing limit is reached. • 6. Dice the Romaine Lettuce via the translicer. • 7. Collect the 2″×2″ diced Romaine in totes. • 8. Record the weight of each tote prior to transferring it to the 2nd flume. • 9. Collect three untreated bags of Romaine Lettuce from each bin (1 top, 1 middle, and 1 bottom). • 10. Collect three treated bags of Romaine Lettuce at the end of F2 (1 beginning, 1 middle, and 1 end of the bin). • 11. Place white totes at the bottom of the locations with water spill. Return the spilt water back into the flume tank as needed. • 12. Place white totes at the bottom outlets of the centrifuge to collect liquid that would be spin off from the leaves. Return the collected water back into the flume tank as needed. • 13. Repeat Steps ‘e’ to ‘k’ for the rest of the bins till the FE concentrations fall below the lowest processing limits. • 14. Enumerate the microbial population (APC and Yeast and mold) on the collected samples. B. Determination of the amount of Romaine Lettuce that could deplete 600 gallons of FE wash water • 1. Perform full sanitization on the Pilot Line System. • 2. Fill the 1st flume tank, 2nd flume tank, 1st reservoir, 2nd reservoir, 1^stfiltering tank, and 2nd filtering tank with tap water. • 3. Recycle the water through the system until the water in the system is being cooled down to 40° F. • 4. Switch on the by-passes for the 1st and 2nd flume tank systems so that water would not be going through the filtering systems but only recycling from the flume tank to its associate reservoir continuously. • 5. Add the chemical ingredients to both tank until the target processing limit is reached. • 6. Verify the concentration of FE by the probe of the Prominent Monitoring System at the 1st flume tank (F1), 1st Reservoir (R1), 2nd Flume tank (F2), and the 2nd Reservoir (R2). • 7. Collect water samples from F1 and F2. • 8. Assemble the Romaine Lettuce Bins next to the dumpster. • 9. Transfer whole Romaine Lettuce leaves from the bin to the conveyor. • 10. Ensure that the lid above the F1 is closed. Turn the “ON/OFF” switch of the translicer to “ON”. • 11. Turn the conveyor for transferring leaves into the translicer to “ON”. • 12. Ensure that the chopped Romaine are delivered evenly into the flume tank without aggregation and clumping. • 13. Collect three untreated bags of Romaine Lettuce from each bin (1 top, 1 middle, and 1 bottom). • 14. Collect three treated bags of Romaine Lettuce at the end of F2 (1 beginning, 1 middle, and 1 end of the bin). • 15. Verify the pH, temperature, and the concentration of FE at the 1st flume tank (F1), 1st Reservoir (R1), 2nd Flume tank (F2), and the 2nd Reservoir (R2) before and after processing a bin. • 16. Place white totes at the bottom of the locations with water spill. Return the spilt water back into the flume tank as needed. • 17. Place white totes at the bottom outlets of the centrifuge to collect liquid that would be spin off from the leaves. Return the collected water back into the flume tank as needed. • 18. Repeat Steps ‘e’ to ‘o’ for the rest of the bins till the FE concentrations fall below the lowest processing limits. • 19. […]"}, "[2]": {"tested_on": "indigenous microorganisms", "test": "Reduction of indigenous microorganisms on Romaine, Aerobic Plate Counts, commercial scale test (Example 5)", "format": "cell-based", "details": "73-84 ppm peroxyacetic acid, no lactic acid", "experimental": "as §1, §2, §3, §4\nA. Determination of the amount of Romaine Lettuce that could deplete 600 gallons of peroxyacetic acid wash water. • 1. Perform full sanitization on the Pilot Line System. • 2. Fill the 2nd flume tank, 2nd reservoir, and 2nd filtering tank with tap water. • 3. Recycle the water through the system until the water in the system is being cooled down to 40° F. • 4. Calibrate the Prominent System and use the Prominent System to monitor the concentration of PAA in the wash water. • 5. Add the PAA to the 2nd filtering tank until the target processing limit is reached. • 6. Dice the Romaine Lettuce via the translicer. • 7. Collect the 2″×2″ diced Romaine in totes. • 8. Record the weight of each tote prior to transferring it to the 2nd flume. • 9. Collect three untreated bags of Romaine Lettuce from each bin (1 top, 1 middle, and 1 bottom). • 10. Collect three treated bags of Romaine Lettuce at the end of F2 (1 beginning, 1 middle, and 1 end of the bin). • 11. Place white totes at the bottom of the locations with water spill. Return the spilt water back into the flume tank as needed. • 12. […]"}, "[3]": {"details": "cited from earlier work"}, "[4]": {"details": "40° C.; cited from earlier work"}, "[5]": {"details": "600 gallons wash water, whole run"}, "[6]": {"details": "cumulative diced Romaine added 0.0 lb"}, "[7]": {"details": "cumulative diced Romaine added 55.2 lb"}, "[8]": {"details": "cumulative diced Romaine added 114.9 lb"}, "[9]": {"details": "cumulative diced Romaine added 157.2 lb"}, "[10]": {"details": "cumulative diced Romaine added 207.7 lb"}, "[11]": {"details": "cumulative diced Romaine added 272.9 lb"}, "[12]": {"details": "cumulative diced Romaine added 325.8 lb"}, "[13]": {"details": "cumulative diced Romaine added 371.3 lb"}, "[14]": {"details": "cumulative diced Romaine added 424.7 lb"}, "[15]": {"details": "cumulative diced Romaine added 502.6 lb"}, "[16]": {"details": "cumulative diced Romaine added 565.0 lb"}, "[17]": {"details": "cumulative diced Romaine added 629.0 lb"}, "[18]": {"details": "cumulative diced Romaine added 697.1 lb"}, "[19]": {"details": "cumulative diced Romaine added 762.7 lb"}, "[20]": {"details": "cumulative diced Romaine added 826.6 lb"}, "[21]": {"details": "cumulative diced Romaine added 896.2 lb"}, "[22]": {"details": "cumulative diced Romaine added 949.9 lb"}}, "data": [{"smiles": "CC(=O)OO", "note": "[Peroxyacetic acid, peroxyacetic acid]", "values": [{"measurement": "Amount of PA consumed", "setting": "[1]; [5]", "value": 11.7, "unit": "ppm"}, {"measurement": "Pounds of PA consumed", "setting": "[1]; [5]", "value": 0.01208, "unit": "lb"}, {"measurement": "Depletion of PA", "setting": "[1]; 600 gallons wash water, no lactic acid", "value": "0.000013 lb of PA per lb of Romaine"}, {"measurement": "PA (ppm)", "setting": "[1]; [6]", "value": 84.8, "unit": "ppm"}, {"measurement": "Peroxide (ppm)", "setting": "[1]; [6]", "value": 7.5, "unit": "ppm"}, {"measurement": "PA (ppm)", "setting": "[1]; [7]", "value": 83.3, "unit": "ppm"}, {"measurement": "Peroxide (ppm)", "setting": "[1]; [7]", "value": 7.4, "unit": "ppm"}, {"measurement": "PA (ppm)", "setting": "[1]; [8]", "value": 82.7, "unit": "ppm"}, {"measurement": "Peroxide (ppm)", "setting": "[1]; [8]", "value": 7.4, "unit": "ppm"}, {"measurement": "PA (ppm)", "setting": "[1]; [9]", "value": 82.4, "unit": "ppm"}, {"measurement": "Peroxide (ppm)", "setting": "[1]; [9]", "value": 7.4, "unit": "ppm"}, {"measurement": "PA (ppm)", "setting": "[1]; [10]", "value": 82.0, "unit": "ppm"}, {"measurement": "Peroxide (ppm)", "setting": "[1]; [10]", "value": 7.4, "unit": "ppm"}, {"measurement": "PA (ppm)", "setting": "[1]; [11]", "value": 81.4, "unit": "ppm"}, {"measurement": "Peroxide (ppm)", "setting": "[1]; [11]", "value": 7.3, "unit": "ppm"}, {"measurement": "PA (ppm)", "setting": "[1]; [12]", "value": 81.0, "unit": "ppm"}, {"measurement": "Peroxide (ppm)", "setting": "[1]; [12]", "value": 7.3, "unit": "ppm"}, {"measurement": "PA (ppm)", "setting": "[1]; [13]", "value": 80.5, "unit": "ppm"}, {"measurement": "Peroxide (ppm)", "setting": "[1]; [13]", "value": 7.1, "unit": "ppm"}, {"measurement": "PA (ppm)", "setting": "[1]; [14]", "value": 79.6, "unit": "ppm"}, {"measurement": "Peroxide (ppm)", "setting": "[1]; [14]", "value": 6.9, "unit": "ppm"}, {"measurement": "PA (ppm)", "setting": "[1]; [15]", "value": 78.7, "unit": "ppm"}, {"measurement": "Peroxide (ppm)", "setting": "[1]; [15]", "value": 6.9, "unit": "ppm"}, {"measurement": "PA (ppm)", "setting": "[1]; [16]", "value": 78.4, "unit": "ppm"}, {"measurement": "Peroxide (ppm)", "setting": "[1]; [16]", "value": 6.9, "unit": "ppm"}, {"measurement": "PA (ppm)", "setting": "[1]; [17]", "value": 77.7, "unit": "ppm"}, {"measurement": "Peroxide (ppm)", "setting": "[1]; [17]", "value": 6.4, "unit": "ppm"}, {"measurement": "PA (ppm)", "setting": "[1]; [18]", "value": 76.1, "unit": "ppm"}, {"measurement": "Peroxide (ppm)", "setting": "[1]; [18]", "value": 6.4, "unit": "ppm"}, {"measurement": "PA (ppm)", "setting": "[1]; [19]", "value": 75.4, "unit": "ppm"}, {"measurement": "Peroxide (ppm)", "setting": "[1]; [19]", "value": 6.1, "unit": "ppm"}, {"measurement": "PA (ppm)", "setting": "[1]; [20]", "value": 74.7, "unit": "ppm"}, {"measurement": "Peroxide (ppm)", "setting": "[1]; [20]", "value": 6.0, "unit": "ppm"}, {"measurement": "PA (ppm)", "setting": "[1]; [21]", "value": 73.7, "unit": "ppm"}, {"measurement": "Peroxide (ppm)", "setting": "[1]; [21]", "value": 6.0, "unit": "ppm"}, {"measurement": "PA (ppm)", "setting": "[1]; [22]", "value": 73.1, "unit": "ppm"}, {"measurement": "Peroxide (ppm)", "setting": "[1]; [22]", "value": 6.0, "unit": "ppm"}, {"measurement": "Log Reduction, Aerobic Plate Counts", "setting": "[2]", "value": 0.7, "unit": "Log cfu/g"}, {"measurement": "Aerobic Plate Counts after wash", "setting": "[2]; untreated 3.4", "value": 2.7, "unit": "Log cfu/g"}, {"measurement": "Oxidation Capacity", "setting": "[3]", "value": 1.81, "unit": "eV"}, {"measurement": "apparent equilibrium constant, Kap", "setting": "[4]", "value": "about 2.21"}]}]}
